Data on one molecule can be found in article PMC5218480 (PLoS ONE, 2017).

The assay deals with MV-4-11 cells. As to the kind of experiment: Gene expression microarray analysis (Affymetrix PrimeView) and GSEA. The class given is cell-based, human. More on the design: RFU PODN (11730768_x_at) / Fold change /veh PODN (11730768_x_at) / RFU LINC00158 (11744669_a_at) / Fold change /veh LINC00158 (11744669_a_at) / RFU DUSP10 (11751237_a_at) / Fold change /veh DUSP10 (11751237_a_at) / RFU ID3 (11757404_x_at) / Fold change /veh ID3 (11757404_x_at) / RFU PLEKHG5 (11737974_s_at) / Fold change /veh PLEKHG5 (11737974_s_at) / RFU LRRC4B (11730491_at) / Fold change /veh LRRC4B (11730491_at) / RFU GIMAP4 (11747438_a_at) / Fold change /veh GIMAP4 (11747438_a_at) / RFU KRT8 (11758183_x_at) / Fold change /veh KRT8 (11758183_x_at) / RFU CNN1 (11734310_a_at) / Fold change /veh CNN1 (11734310_a_at) / RFU VPS37D (11726825_at) / Fold change /veh VPS37D (11726825_at) / RFU C10orf10 (11716522_x_at) / Fold change /veh C10orf10 (11716522_x_at) / RFU KIR2DL2 /// KIR2DL4 /// KIR2DL5A /// KIR2DL5B /// KIR2DS1 /// KIR2DS2 /// KIR2DS3 /// KIR2DS4 /// KIR3DL3 /// KIR3DL3 /// KIR3DS1 (11738374_at) / Fold change /veh KIR2DL2 /// KIR2DL4 /// KIR2DL5A /// KIR2DL5B /// KIR2DS1 /// KIR2DS2 /// KIR2DS3 /// KIR2DS4 /// KIR3DL3 /// KIR3DL3 /// KIR3DS1 (11738374_at) / RFU C1QL1 (11718748_at) / Fold change /veh C1QL1 (11718748_at) / RFU TMPRSS4 (11747572_a_at) / Fold change /veh TMPRSS4 (11747572_a_at) / RFU HAMP (11756126_x_at) / Fold change /veh HAMP (11756126_x_at) / RFU RNFT2 (11725882_a_at) / Fold change /veh RNFT2 (11725882_a_at) / RFU NR4A2 (11747474_a_at) / Fold change /veh NR4A2 (11747474_a_at) / RFU ABCC12 (11746883_a_at) / Fold change /veh ABCC12 (11746883_a_at) / RFU TMEM136 (11760407_x_at) / Fold change /veh TMEM136 (11760407_x_at) / RFU CLDN22 /// WWC2 (11732394_at) / Fold change /veh CLDN22 /// WWC2 (11732394_at) / RFU HLA-DPB1 (11760878_x_at) / Fold change /veh HLA-DPB1 (11760878_x_at) / RFU SPINT1 (11716480_a_at) / Fold change /veh SPINT1 (11716480_a_at) / RFU GAP43 (11754022_s_at) / Fold change /veh GAP43 (11754022_s_at) / RFU A4GNT (11735810_at) / Fold change /veh A4GNT (11735810_at) / RFU PRB3 (11715151_x_at) / Fold change /veh PRB3 (11715151_x_at) / RFU TUBB4B (11761932_at) / Fold change /veh TUBB4B (11761932_at) / RFU CAPN14 (11732068_a_at) / Fold change /veh CAPN14 (11732068_a_at) / RFU TMCC2 (11721928_a_at) / Fold change /veh TMCC2 (11721928_a_at) / RFU IRGQ (11745062_a_at) / Fold change /veh IRGQ (11745062_a_at) / RFU FAM174B (11720279_a_at) / Fold change /veh FAM174B (11720279_a_at) / RFU TMPRSS4 (11748680_a_at) / Fold change /veh TMPRSS4 (11748680_a_at) / RFU FAM212B (11763350_a_at) / Fold change /veh FAM212B (11763350_a_at) / RFU PLEKHG5 (11743358_a_at) / Fold change /veh PLEKHG5 (11743358_a_at) / RFU ZSCAN30 (11745921_a_at) / Fold change /veh ZSCAN30 (11745921_a_at) / RFU CMKLR1 (11741424_a_at) / Fold change /veh CMKLR1 (11741424_a_at) / RFU LOC101060620 /// MAPK8IP1 (11723275_at) / Fold change /veh LOC101060620 /// MAPK8IP1 (11723275_at) / RFU SPTSSB (11747773_x_at) / Fold change /veh SPTSSB (11747773_x_at) / RFU PRSS12 (11739890_at) / Fold change /veh PRSS12 (11739890_at) / RFU BIN1 (11741810_x_at) / Fold change /veh BIN1 (11741810_x_at) / RFU WNT11 (11732464_a_at) / Fold change /veh WNT11 (11732464_a_at) / RFU C10orf10 (11716521_a_at) / Fold change /veh C10orf10 (11716521_a_at) / RFU C5orf56 (11738089_at) / Fold change /veh C5orf56 (11738089_at) / RFU CYB561 (11721691_x_at) / Fold change /veh CYB561 (11721691_x_at) / RFU ANKRD19P (11752326_a_at) / Fold change /veh ANKRD19P (11752326_a_at) / RFU OR2T12 /// OR2T33 /// OR2T8 (11738714_s_at) / Fold change /veh OR2T12 /// OR2T33 /// OR2T8 (11738714_s_at) / RFU VCAN (11748164_a_at) / Fold change /veh VCAN (11748164_a_at) / RFU JSRP1 (11732532_at) / Fold change /veh JSRP1 (11732532_at) / RFU KRTAP10-11 (11738290_x_at) / Fold change /veh KRTAP10-11 (11738290_x_at) / RFU MYO3A (11730013_a_at) / Fold change /veh MYO3A (11730013_a_at) / RFU EBF3 (11725865_a_at) / Fold change /veh EBF3 (11725865_a_at) / RFU CAMK2N1 (11719241_x_at) / Fold change /veh CAMK2N1 (11719241_x_at) / RFU C5orf56 (11738088_a_at) / Fold change /veh C5orf56 (11738088_a_at) / RFU OLFML3 (11715873_a_at) / Fold change /veh OLFML3 (11715873_a_at) / RFU LOC100653217 /// NTM (11731650_a_at) / Fold change /veh LOC100653217 /// NTM (11731650_a_at) / RFU MAPK11 (11762145_a_at) / Fold change /veh MAPK11 (11762145_a_at) / RFU FIZ1 (11724087_x_at) / Fold change /veh FIZ1 (11724087_x_at) / RFU OASL (11726364_x_at) / Fold change /veh OASL (11726364_x_at) / RFU SOX15 (11748057_x_at) / Fold change /veh SOX15 (11748057_x_at) / RFU CD79A (11719716_a_at) / Fold change /veh CD79A (11719716_a_at) / RFU HIST1H1D (11736915_at) / Fold change /veh HIST1H1D (11736915_at) / RFU CASKIN2 (11723855_a_at) / Fold change /veh CASKIN2 (11723855_a_at) / RFU LOC730098 (11760151_x_at) / Fold change /veh LOC730098 (11760151_x_at) / RFU OR4N2 (11742367_at) / Fold change /veh OR4N2 (11742367_at) / RFU PRRT2 (11749266_a_at) / Fold change /veh PRRT2 (11749266_a_at) / RFU SNX32 (11753110_a_at) / Fold change /veh SNX32 (11753110_a_at) / RFU CDHR5 (11726645_a_at) / Fold change /veh CDHR5 (11726645_a_at) / RFU RCAN1 (11760418_a_at) / Fold change /veh RCAN1 (11760418_a_at) / RFU FAM167A (11723789_a_at) / Fold change /veh FAM167A (11723789_a_at) / RFU FAM26E (11764081_at) / Fold change /veh FAM26E (11764081_at) / RFU ISYNA1 (11749810_s_at) / Fold change /veh ISYNA1 (11749810_s_at) / RFU ACY1 (11761880_at) / Fold change /veh ACY1 (11761880_at) / RFU 11764098_at / Fold change /veh 11764098_at / RFU SAMD14 (11745864_x_at) / Fold change /veh SAMD14 (11745864_x_at) / RFU NPB (11741838_a_at) / Fold change /veh NPB (11741838_a_at) / RFU TMPRSS6 (11731388_a_at) / Fold change /veh TMPRSS6 (11731388_a_at) / RFU KRTAP10-2 (11738614_at) / Fold change /veh KRTAP10-2 (11738614_at) / RFU ARHGAP8 /// PRR5-ARHGAP8 (11727945_x_at) / Fold change /veh ARHGAP8 /// PRR5-ARHGAP8 (11727945_x_at) / RFU KRTAP5-7 /// NADSYN1 (11734609_at) / Fold change /veh KRTAP5-7 /// NADSYN1 (11734609_at) / RFU RASL12 (11751679_a_at) / Fold change /veh RASL12 (11751679_a_at) / RFU CDKN2B (11736163_a_at) / Fold change /veh CDKN2B (11736163_a_at) / RFU PRF1 (11729649_at) / Fold change /veh PRF1 (11729649_at) / RFU, ZNF638 /// ZNF638-IT1 / Fold change vs veh, ZNF638 /// ZNF638-IT1 / RFU, PANK3 / Fold change vs veh, PANK3 / RFU, SH3YL1 / Fold change vs veh, SH3YL1 / RFU, ZEB2 / Fold change vs veh, ZEB2 / RFU, NRIP1 / Fold change vs veh, NRIP1 / RFU, PTTG1IP / Fold change vs veh, PTTG1IP / RFU, CAPN2 / Fold change vs veh, CAPN2 / RFU, MED14 / Fold change vs veh, MED14 / RFU, SNORA58 / Fold change vs veh, SNORA58 / RFU, C1orf63 / Fold change vs veh, C1orf63 / RFU, LRRFIP1 / Fold change vs veh, LRRFIP1 / RFU, NDUFAF7 / Fold change vs veh, NDUFAF7 / RFU, SLC12A2 / Fold change vs veh, SLC12A2 / RFU, IBTK / Fold change vs veh, IBTK / RFU, ESF1 / Fold change vs veh, ESF1 / Fold change vs veh, TMEM50B / RFU, TAOK1 / Fold change vs veh, TAOK1 / RFU, ACBD3 / Fold change vs veh, ACBD3 / RFU, TMA16 / Fold change vs veh, TMA16 / RFU, RWDD3 / Fold change vs veh, RWDD3 / RFU, BCAT1 / Fold change vs veh, BCAT1 / RFU, EDEM3 / Fold change vs veh, EDEM3 / RFU, TMEM33 / Fold change vs veh, TMEM33 / RFU, WDR75 / Fold change vs veh, WDR75 / RFU, AHCTF1 / Fold change vs veh, AHCTF1 / RFU, TFRC / Fold change vs veh, TFRC / RFU, ZDHHC17 / Fold change vs veh, ZDHHC17 / RFU, NOM1 / Fold change vs veh, NOM1 / RFU, ARL8B / Fold change vs veh, ARL8B / RFU, ZBTB11 / Fold change vs veh, ZBTB11 / RFU, TAMM41 / Fold change vs veh, TAMM41 / RFU, KIAA1704 /// LOC100996395 / Fold change vs veh, KIAA1704 /// LOC100996395 / RFU, ING1 / Fold change vs veh, ING1 / RFU, TRMT61B / Fold change vs veh, TRMT61B / RFU, FUBP3 / Fold change vs veh, FUBP3 / RFU, TP53 / Fold change vs veh, TP53 / RFU, TNKS2 / Fold change vs veh, TNKS2 / RFU, ZFP14 / Fold change vs veh, ZFP14 / RFU, ACTR2 / Fold change vs veh, ACTR2 / RFU, PPP3R1 / Fold change vs veh, PPP3R1 / RFU, PIK3R1 / Fold change vs veh, PIK3R1 / RFU, HNRNPA1 / Fold change vs veh, HNRNPA1 / RFU, RNF170 / Fold change vs veh, RNF170 / RFU, ZNF28 / Fold change vs veh, ZNF28 / RFU, RNGTT / Fold change vs veh, RNGTT / RFU, OGT / Fold change vs veh, OGT / RFU, BRD1 / Fold change vs veh, BRD1 / RFU, MARS / Fold change vs veh, MARS / RFU, ZNF655 / Fold change vs veh, ZNF655 / RFU, FAHD1 / Fold change vs veh, FAHD1 / RFU, BDP1 / Fold change vs veh, BDP1 / RFU, LRRCC1 / Fold change vs veh, LRRCC1 / RFU, ARID1A / Fold change vs veh, ARID1A / RFU, ZNF146 / Fold change vs veh, ZNF146 / RFU, ZNF330 / Fold change vs veh, ZNF330 / RFU, GPN3 / Fold change vs veh, GPN3 / RFU, C9orf123 / Fold change vs veh, C9orf123 / RFU, N4BP2L2 / Fold change vs veh, N4BP2L2 / RFU, ARFIP1 / Fold change vs veh, ARFIP1 / RFU, FAM179B / Fold change vs veh, FAM179B / RFU, BCL10 / Fold change vs veh, BCL10 / RFU, UHRF1BP1L / Fold change vs veh, UHRF1BP1L / RFU, BET1 / Fold change vs veh, BET1 / RFU, CNOT2 / Fold change vs veh, CNOT2 / RFU, ZNF268 / Fold change vs veh, ZNF268 / Fold change vs veh, ZNF507 / RFU, DGCR2 / Fold change vs veh, DGCR2 / RFU, WDSUB1 / Fold change vs veh, WDSUB1 / Fold change vs veh, HSP90B1 /// MIR3652 / RFU, ADSS / Fold change vs veh, ADSS / RFU, GK / Fold change vs veh, GK / RFU, ZNF148 / Fold change vs veh, ZNF148 / RFU, TAF9 / Fold change vs veh, TAF9 / RFU, SLC1A5 / Fold change vs veh, SLC1A5 / RFU, SLMO2 / Fold change vs veh, SLMO2 / RFU, ABCC4 / Fold change vs veh, ABCC4 / RFU, LOC101060439 /// RAP1B / Fold change vs veh, LOC101060439 /// RAP1B / RFU, RFX7 / Fold change vs veh, RFX7 / RFU, GTPBP10 / Fold change vs veh, GTPBP10 / RFU, CNEP1R1 / Fold change vs veh, CNEP1R1 / RFU, BIVM-ERCC5 /// ERCC5 / Fold change vs veh, BIVM-ERCC5 /// ERCC5 / RFU, ILF3 / Fold change vs veh, ILF3 / RFU 11762660_at / Fold change /veh 11762660_at / RFU VCAN (11757783_s_at) / Fold change /veh VCAN (11757783_s_at) / RFU DDX43 (11728927_at) / Fold change /veh DDX43 (11728927_at) / RFU KRT8 (11758188_x_at) / Fold change /veh KRT8 (11758188_x_at) / RFU NKD1 (11759106_at) / Fold change /veh NKD1 (11759106_at) / RFU SRD5A1 (11742802_a_at) / Fold change /veh SRD5A1 (11742802_a_at) / RFU TPSAB1 /// TPSB2 (11721975_s_at) / Fold change /veh TPSAB1 /// TPSB2 (11721975_s_at) / RFU GSTM3 (11746129_a_at) / Fold change /veh GSTM3 (11746129_a_at) / RFU IL23R (11737362_x_at) / Fold change /veh IL23R (11737362_x_at) / RFU TMEM51 (11727254_a_at) / Fold change /veh TMEM51 (11727254_a_at) / RFU PIWIL2 (11732686_x_at) / Fold change /veh PIWIL2 (11732686_x_at) / RFU ORM1 (11744905_x_at) / Fold change /veh ORM1 (11744905_x_at) / RFU CCDC152 (11743942_at) / Fold change /veh CCDC152 (11743942_at) / RFU ECM1 (11717891_a_at) / Fold change /veh ECM1 (11717891_a_at) / RFU IL23R (11748794_a_at) / Fold change /veh IL23R (11748794_a_at) / RFU TNFAIP8L3 (11732012_x_at) / Fold change /veh TNFAIP8L3 (11732012_x_at) / RFU MBOAT4 (11741988_at) / Fold change /veh MBOAT4 (11741988_at) / RFU 11764193_at / Fold change /veh 11764193_at / RFU TMEM53 (11763286_at) / Fold change /veh TMEM53 (11763286_at) / RFU MAGEB2 (11727129_at) / Fold change /veh MAGEB2 (11727129_at) / RFU TMEM200A (11744735_a_at) / Fold change /veh TMEM200A (11744735_a_at) / RFU CCDC152 (11751479_a_at) / Fold change /veh CCDC152 (11751479_a_at) / RFU FAM211A (11726209_a_at) / Fold change /veh FAM211A (11726209_a_at) / RFU RGS16 (11746705_a_at) / Fold change /veh RGS16 (11746705_a_at) / RFU VCAN (11755009_s_at) / Fold change /veh VCAN (11755009_s_at) / RFU RHOB (11743442_s_at) / Fold change /veh RHOB (11743442_s_at) / RFU RGS16 (11720943_a_at) / Fold change /veh RGS16 (11720943_a_at) / RFU RGS16 (11720944_at) / Fold change /veh RGS16 (11720944_at) / RFU, VPS4B / Fold change vs veh, VPS4B / RFU, CREB1 / Fold change vs veh, CREB1 / RFU, DNAJC13 / Fold change vs veh, DNAJC13 / RFU, GNAQ / Fold change vs veh, GNAQ / RFU, CDK5R1 / Fold change vs veh, CDK5R1 / RFU, ZRANB3 / Fold change vs veh, ZRANB3 / RFU, CUL4A / Fold change vs veh, CUL4A / RFU, CCNY / Fold change vs veh, CCNY / RFU, UFL1 / Fold change vs veh, UFL1 / RFU, COG3 / Fold change vs veh, COG3 / RFU, DIAPH2 / Fold change vs veh, DIAPH2 / RFU, SKA2 / Fold change vs veh, SKA2 / RFU, AFF3 / Fold change vs veh, AFF3 / RFU, LMF1 / Fold change vs veh, LMF1 / RFU, IPO11 / Fold change vs veh, IPO11 / RFU, DFFB / Fold change vs veh, DFFB / RFU, FOXP1 / Fold change vs veh, FOXP1 / RFU, CARD8 / Fold change vs veh, CARD8 / RFU, STRN3 / Fold change vs veh, STRN3 / RFU, ADK / Fold change vs veh, ADK / RFU, RASSF2 / Fold change vs veh, RASSF2 / RFU, WIPF1 / Fold change vs veh, WIPF1 / RFU, LARP1B / Fold change vs veh, LARP1B / RFU, RASA1 / Fold change vs veh, RASA1 / RFU, RB1 / Fold change vs veh, RB1 / RFU, PPFIA1 / Fold change vs veh, PPFIA1 / RFU, MAT2A / Fold change vs veh, MAT2A / RFU, CCT5 / Fold change vs veh, CCT5 / RFU, WDR92 / Fold change vs veh, WDR92 / RFU, CUX1 / Fold change vs veh, CUX1 / RFU, TTC7A / Fold change vs veh, TTC7A / RFU, TMEM135 / Fold change vs veh, TMEM135 / RFU, DEPTOR / Fold change vs veh, DEPTOR / RFU, CPM / Fold change vs veh, CPM / RFU, DNAJB6 / Fold change vs veh, DNAJB6 / RFU, CACNA2D3 / Fold change vs veh, CACNA2D3 / RFU, DTX4 / Fold change vs veh, DTX4 / RFU, TFCP2 / Fold change vs veh, TFCP2 / RFU, GMCL1 /// GMCL1P1 / Fold change vs veh, GMCL1 /// GMCL1P1 / RFU, AEBP2 / Fold change vs veh, AEBP2 / RFU, SNHG1 /// SNORD22 /// SNORD25 /// SNORD26 /// SNORD27 /// SNORD28 /// SNORD29 /// SNORD31 / Fold change vs veh, SNHG1 /// SNORD22 /// SNORD25 /// SNORD26 /// SNORD27 /// SNORD28 /// SNORD29 /// SNORD31 / Fold change (Aza/veh), C12orf56 (ProbeSet 11735607_a_at) / Fold change (ACY-1035/veh), C12orf56 (ProbeSet 11735607_a_at) / Fold change (Aza/veh), FGFR1OP (ProbeSet 11751329_s_at) / Fold change (ACY-1035/veh), FGFR1OP (ProbeSet 11751329_s_at) / Fold change (Aza/veh), VPS36 (ProbeSet 11739960_a_at) / Fold change (ACY-1035/veh), VPS36 (ProbeSet 11739960_a_at) / RFU SYPL1 (11715823_x_at) / Fold change /veh SYPL1 (11715823_x_at) / RFU IGFBP7 (11715501_s_at) / Fold change /veh IGFBP7 (11715501_s_at) / RFU REEP3 (11722064_at) / Fold change /veh REEP3 (11722064_at) / RFU IGLL1 (11728026_x_at) / Fold change /veh IGLL1 (11728026_x_at): dose or concentration left out as unconfirmed. Particulars: ProbeSet 11753616_s_at; LIST B.

Consider `Nc1ncn([C@@H]2O[C@H](CO)[C@@H](O)[C@H]2O)c(=O)n1` [azacitidine], for which the “Fold change vs veh, ARL8B” value came to 0.84.
